Earlier results, collected in patent publication US12201720B2, “Pharmaceutical composition comprising GHB gastro-retentive raft forming systems having trigger pulse drug release” (Tris Pharma, Inc., priority 2017, dated 2025).
Read-outs that look alike come from different tables or passages of the source.

Details: descriptive statement

O=C(O)CCCO [Sodium oxybate]
Solubility in water / aqueous solutions: very soluble
Solubility in water / aqueous solutions (listed as Sodium GHB): highly water-soluble
